Peptide text beside a SMILES is read from it. * marks the point of attachment. Cbz = O=C(OCc1ccccc1)*
Key:
[1] = test system: TNF release from human PBMCs; experiment: LPS stimulated TNF secretion from PBMCs (ELISA); assay type: cell-based; conditions: 2 h pretreatment, then LPS 10 ng/ml 4 h
H9C2 cells [2] = experiment: CCCP triggered mitochondrial injury in H9C2 cells, Mitosense Red and Annexin V flow cytometry; assay type: cell-based, rat; conditions: 100 ng/ml 16 h, CCCP 20 μM 2 h; CCCP alone 17.2%
PINK1 [3] = assay type: cell-based, human; conditions: SHSY5Y PINK1-Flag, compound 3 h, cycloheximide 10 μg/ml 1 h
From the text: FIGS. 7A-7H. […] FIG. 7A. […] FIG. 7B. […] FIG. 7C. […] FIG. 7D-7E. […] Scale bar=100 μm.

[4] = test system: late neural progenitor cells differentiated from a human iPSC line; experiment: DMSO-induced cell death in late neural progenitor cells from an SNCA triplication iPSC line; assay type: cell-based; conditions: 5 ng/mL for 1 wk
Description: Methods. Late neural progenitor cells were derived from an iPSC line from a PD patient with SNCA gene triplication, as previously described (D'Aiuto et al. Organogenesis 10(4): 365-377). […] Images were acquired with a 40× oil objective (1.30 NA) on an Olympus IX71 microscope using Olympus CellSens V1.17 with a DP80 camera. Cell death was assessed by counting condensed/fragmented nuclei. Results.

[5] = intracerebral ventricular infusion in mice for 2 weeks (tolerability); assay type: in vivo, mouse; conditions: 10 ug/ml via intracerebral ventricular infusion for 2 weeks
Description: BC 1464 was administered in artificial CSF with DMSO by intracerebroventricular pump to C5bl/6 mice.

primary fibroblasts = experiment: 6-OHDA model in primary fibroblasts; conditions: 6-OHDA 300 M (unit prefix printed as image), 19 h
[6] = test system: P. aeruginosa (PA103) lung inflammatory injury; experiment: experimental pneumonia: mice given PA103 i.t.
Pink1 [7] = experiment: Pink1 protein stability (CHX chase) in BEAS-2B cells; conditions: 1 μg/ml for 16 h, then CHX 40 μg/ml
PINK1 [8] = experiment: human lung slices challenged with LPS: Pink1 immunoblotting; conditions: compound 4 h, then LPS 100 ng/ml 4 h
SH-SY5Y cells = experiment: MPP+ elicited injury in SH-SY5Y cells, AlamarBlue cell viability; conditions: 5 μg/ml with MPP+ for 24 h, relative to BC1465
[9] = test system: cytokine release from human lung explants; experiment: human lung slices challenged with LPS: TNFα ELISA of supernatant; conditions: compound 4 h, then LPS 100 ng/ml 4 h
Pink1 [10] = experiment: target validation: Pink1 levels in BEAS-2B cells with control or Fbxo7 siRNA; conditions: Fbxo7 siRNA 3 days, compound 18 h
H9C2 cells [11] = experiment: tBHP-induced mitochondrial injury in H9C2 cells, MitoTracker Red flow cytometry; conditions: 100 ng/ml 16 h, tBHP 100 μM 45 min
primary cortical neurons = experiment: morphological injury of GFP-transfected primary cortical neurons challenged with MPP+; conditions: MPP+ 24 h
H9C2 cells [12] = experiment: mitochondrial membrane potential after CCCP in H9C2 cells, JC1 staining, confocal microscopy; conditions: 100 ng/ml 16 h, CCCP 20 μM 2 h
Pink1 [13] = experiment: Pink1 protein decay in BEAS-2B cells with proteasomal or lysosomal inhibitors and CHX; assay type: cell-based; conditions: 30 min pretreatment (MG132 20 μM, leupeptin 100 μM), then CHX 40 μg/ml
Description: FIGS. 1A-1E. Fbxo7 mediates Pink1 polyubiquitylation and proteasomal degradation. FIG. 1A. BEAS-2B cells were pretreated with MG132 (20 μM), leupeptin (100 μM), or diluent (control, CON) for 30 min, and then were treated with CHX (40 μg/ml) to assay protein decay. The cell lysates were obtained at the indicated time points for immunoblotting. FIG. 1B. BEAS-2B cells were nucleofected with V5-tagged Fbxo7 plasmid at indicated amounts and incubated for 48 h, the whole cell lysates were subjected to immunoblotting. FIG. 1C. BEAS-2B cells were nucleofected with 4 individual shRNAs respectively and analyzed by immunoblotting. FIG. 1D. BEAS-2B cells were nucleofected with control shRNA or Fbxo7 shRNA for 72 h, and then treated with CHX (40 μg/ml). The cells were collected at indicated time points for half-life analysis. FIG. 1E. In vitro ubiquitylation assays were performed with synthesized Pink1 combined with indicated recombinant proteins.
Cell Culture and Transfection.
Pink1 undergoes rapid proteolysis in cells, and the cleaved Pink1 fragment may be degraded through the N-end rule pathway. To test if full length Pink1 is subjected to ubiquitin mediated degradation, we evaluated the ability of proteasomal or lysosomal inhibitors to regulate stability of the kinase. […]

[14] = 5 mg/kg intraperitoneal, 18 h, compared to vehicle control or BC1465

SMILES: O=C(CCCn1c(SCC(=O)NCC2CCCO2)nc2ccccc2c1=O)NCc1ccccc1 (stereo not drawn) [BC1464]
- reduction of LPS stimulated release of TNF ([1]; 1 ng/ml): ~37%
- LPS stimulated release of TNF ([1]; 10 ng/ml): potently blocked
- CCCP damaged (depolarized) mitochondria (H9C2 cells [2]): 10.5%
- PINK1 expression in the presence of cycloheximide (PINK1 [3]): stabilizes PINK1 expression
- toxicity elicited by DMSO (condensed/fragmented nuclei) [4]: prevented toxicity elicited by DMSO
- toxicity / survival [5]: no overt toxicity
- protection in the 6-OHDA model (primary fibroblasts): conferred protection
- lavage bacteria counts ([6]; 5 mg/kg intraperitoneal at time of PA103, 18 h): no effect
- lavage cell numbers [6, 14]: significantly decreased
- lavage cytokine levels [6, 14]: significantly decreased
- lavage protein [6, 14]: significantly decreased
- Pink1 protein stability upon inhibiting protein synthesis (Pink1 [7]): largely stabilized Pink1
- Pink1 protein levels in human lung explants (PINK1 [8]): selectively increase Pink1 protein levels
- MPP+ elicited injury (cell viability) (SH-SY5Y cells): significantly decreased MPP+ elicited injury
- cytokine release in response to endotoxin [9]: inhibit cytokine release
- Pink1 levels after Fbxo7 siRNA treatment (Pink1 [10]): not observed
- protection from tBHP-induced mitochondrial injury (H9C2 cells [11]): largely protected mitochondria from oxidative stress
- mitochondrial injury (damaged mitochondria) after tBHP (H9C2 cells [11]; tBHP with vehicle 45.3%, untreated 4.1%): 26.1%
- retraction and simplification of the dendritic arbor (primary cortical neurons; 5 μg/ml, versus BC1465): protect against retraction and simplification of the dendritic arbor
- cell death in primary cortical neurons (primary cortical neurons): reduce cell death
- mitochondrial membrane potential disrupted by CCCP (JC1) (H9C2 cells [12]): maintains the mitochondrial membrane potential

SMILES: CC(=O)N[C@@H](CC(C)C)C(=O)N[C@@H](CC(C)C)C(=O)N[C@H](C=O)CCCNC(=N)N [leupeptin]
- Pink1 accumulation / turnover (Pink1 [13]): little impact on basal Pink1 turnover

SMILES: CC(C)C[C@@H](C=O)NC(=O)[C@H](CC(C)C)NC(=O)[C@H](CC(C)C)NC(=O)OCc1ccccc1 [MG132] (Cbz-Leu-Leu-Leu-aldehyde)
- Pink1 accumulation / turnover (Pink1 [13]): accumulated not only the Pink1 fragment, but also full length Pink1

SMILES: N#Cc1ccccc1Cn1c(=O)n(CCCC(=O)NCc2ccc3c(c2)OCO3)c(=O)c2ccccc21 [BC1465, reference compound]
- Pink1 protein stability upon inhibiting protein synthesis (Pink1 [7]): no effect on Pink1 protein stability
